Data as given in patent US20240252677A1, “ONE-COMPONENT DELIVERY SYSTEM FOR NUCLEIC ACIDS” (The Trustees of the University of Pennsylvania, priority 2021, published 2024).

Assay: pKa measurements of individual IAJD molecules by titration
Format: physicochemical
Details: ethanol saturated with NaCl, titrated with 0.1 M aqueous HCl; Table 15; individual IAJD molecule, titration
Experimental: pKa measurements of individual IAJD Molecules was performed as follows. IAJD Molecules were first dissolved in ethanol (Sat. with NaCl) at a concentration of 1.5 mg/mL and the solution volume was 3 mL.
Then 0.1 M HCl solution was added to the above ethanol solution with an increment of 7.5 μL. The resulting pH after each addition of HCl solution was measured by an Thermo Scientific Orion Star A121 meter with Thermo Scientific Orion 8220BNWP pH probe. pKa was determined using the half equivalence point titration.

pKa	SMILES
7.4	CCCCCCCCCCCCOc1cc(COC(=O)CCCN2CCCCC2)cc(OCCCCCCCCCCCC)c1 [IAJD 65, 3,5-Bis(dodecyloxy)benzyl 4-(piperidin-1-yl)butanoate]
6.46	CCCCCCCCCCCCOc1ccc(COC(=O)CCCN2CCN(C)CC2)cc1OCCCCCCCCCCCC [IAJD 78, 3,4-Bis(dodecyloxy)benzyl 4-(4-methylpiperazin-1-yl)butanoate]
6.25	CCCCCCCCCCCCOc1cc(COC(=O)CCCN2CCN(C)CC2)cc(OCCCCCCCCCCCC)c1OCCCCCCCCCCCC [IAJD 79, 3,4,5-Tris(dodecyloxy)benzyl 4-(4-methylpiperazin-1-yl)butanoate]
6.18	CCCCCCCCCCCCOCC(COCCCCCCCCCCCC)(COCCCCCCCCCCCC)COC(=O)CCCN1CCN(C)CC1 [IAJD 82, 3-(Dodecyloxy)-2,2-bis((dodecyloxy)methyl)propyl 4-(4-methylpiperazin-1-yl)butanoate]
6.3	CCCCCCCCCCCCOCC(COCCCCCCCCCCCC)(COCCCCCCCCCCCC)COC(=O)CCCN1CCN(CCO)CC1 [IAJD 83, 3-(Dodecyloxy)-2,2-bis((dodecyloxy)methyl)propyl 4-(4-(2-hydroxyethyl)piperazin-1-yl)butanoate]
6.19	CCCCCCCCCCCCOc1cc(COC(=O)CCN2CCN(C)CC2)cc(OCCCCCCCCCCCC)c1 [IAJD 84, 3,5-Bis(dodecyloxy)benzyl 3-(4-methylpiperazin-1-yl)propanoate]
6.21	CCCCCCCOC(=O)CCCCOc1cc(COC(=O)CCCN2CCN(C)CC2)cc(OCCCCC(=O)OCCCCCCC)c1 [IAJD 85, Diheptyl 5,5′-((5-(((4-(4-methylpiperazin-1-yl)butanoyl)oxy)methyl)-1,3-phenylene)bis(oxy)) dipentanoate]
6.33	CCCCC(CC)COC(=O)CCCCOc1cc(COC(=O)CCCN2CCN(CCO)CC2)cc(OCCCCC(=O)OCC(CC)CCCC)c1 (stereo not drawn) [IAJD 95]
6.32	CCCCC(CC)COc1cc(COC(=O)CCCN2CCN(C)CC2)cc(OCC(CC)CCCC)c1OCC(CC)CCCC (stereo not drawn) [IAJD 96, 3,4,5-Tris((2-ethylhexyl)oxy)benzyl 4-(4-methylpiperazin-1-yl)butanoate]
6.46	CCCCC(CC)COc1cc(COC(=O)CCCN2CCN(CCO)CC2)cc(OCC(CC)CCCC)c1OCC(CC)CCCC (stereo not drawn) [IAJD 97, 3,4,5-Tris((2-ethylhexyl)oxy)benzyl 4-(4-(2-hydroxyethyl)piperazin-1-yl)butanoate]
6.23	CCCCC(CC)COc1ccc(COC(=O)CCCN2CCN(C)CC2)cc1OCC(CC)CCCC (stereo not drawn) [IAJD 103, 3,4-Bis((2-ethylhexyl)oxy)benzyl 4-(4-methylpiperazin-1-yl)butanoate]
6.59	CCCCCCCCCCCCCCOc1cc(CNC(=O)CCCN2CCN(C)CC2)cc(OCCCCCCCCCCCCCC)c1 [IAJD 108, N-(3,5-bis(tetradecyloxy)benzyl)-4-(4-methylpiperazin-1-yl)butanamide]

Same assay, conditions: ethanol saturated with NaCl, titrated with 0.1 M aqueous HCl; individual IAJD molecules, titration

pKa	SMILES
7.64	CCCCCCCCCCCCOc1cc(COC(=O)c2cc(OCCOCCOCCCC(=O)CCCN3CCCCC3)c(OCCOCCOCCOCc3ccccc3)c(OCCOCCOCCOC(=O)CCCN3CCCCC3)c2)cc(OCCCCCCCCCCCC)c1 [IAJD 110]
7.58	CCCCCCCCCCCOc1cc(COC(=O)c2cc(OCCOCCOCCCC(=O)CCCN3CCCCC3)c(OCCOCCOCCOCc3ccccc3)c(OCCOCCOCCOC(=O)CCCN3CCCCC3)c2)cc(OCCCCCCCCCCC)c1 [IAJD 111]
6.52	CCCCCCCCCCCOc1cc(COC(=O)CCCN2CCN(CCO)CC2)cc(OCCCCCCCC)c1 [IAJD 113, 3-(Octyloxy)-5-(undecyloxy)benzyl 4-(4-(2-hydroxyethyl)piperazin-1-yl)butanoate]
6.43	CCCCCCCCCCCOc1cc(COC(=O)CCCN2CCN(C)CC2)cc(OCCCCCCCCCC)c1 [IAJD 114, 3-(Decyloxy)-5-(undecyloxy)benzyl 4-(4-methylpiperazin-1-yl)butanoate]
6.32	CCCCCCCCCCCOc1cc(COC(=O)CCCN2CCN(CCO)CC2)cc(OCCCCCCCCCC)c1 [IAJD 115, 3-(Decyloxy)-5-(undecyloxy)benzyl 4-(4-(2-hydroxyethyl)piperazin-1-yl)butanoate]
6.51	CCCCCCCCCCCCCOc1cc(COC(=O)CCCN2CCN(C)CC2)cc(OCCCCCCCCCCC)c1 [IAJD 116, 3-(Tridecyloxy)-5-(undecyloxy)benzyl 4-(4-methylpiperazin-1-yl)butanoate]
6.49	CCCCCCCCCCCCCOc1cc(COC(=O)CCCN2CCN(CCO)CC2)cc(OCCCCCCCCCCC)c1 [IAJD 117, 3-(Tridecyloxy)-5-(undecyloxy)benzyl 4-(4-(2-hydroxyethyl)piperazin-1-yl)butanoate]
6.33	CCCCCCCCCCCCCCCOc1cc(COC(=O)CCCN2CCN(C)CC2)cc(OCCCCCCCCCCC)c1 [IAJD 118, 3-(Pentadecyloxy)-5-(undecyloxy)benzyl 4-(4-methylpiperazin-1-yl)butanoate]
6.44	CCCCCCCCCCCCCCCOc1cc(COC(=O)CCCN2CCN(CCO)CC2)cc(OCCCCCCCCCCC)c1 [IAJD 119, 3-(Pentadecyloxy)-5-(undecyloxy)benzyl 4-(4-(2-hydroxyethyl)piperazin-1-yl)butanoate]
6.37	CCCCCCCCCCCCCCCCOc1cc(COC(=O)CCCN2CCN(CCO)CC2)cc(OCCCCCCCCCCC)c1 [IAJD 120, 3-(Hexadecyloxy)-5-(undecyloxy)benzyl 4-(4-(2-hydroxyethyl)piperazin-1-yl)butanoate]
6.66	CCCCCCCCCCCOc1cc(COC(=O)CCCN2CCN(CCO)CC2)cc(OCCCCCCCCC)c1 [IAJD 122, 3-(Nonyloxy)-5-(undecyloxy)benzyl 4-(4-(2-hydroxyethyl)piperazin-1-yl)butanoate]
6.65	CCCCCCCCCCCCOc1cc(COC(=O)CCCN2CCN(CCO)CC2)cc(OCCCCCCCCCCC)c1 [IAJD 124, 3-(Dodecyloxy)-5-(undecyloxy)benzyl 4-(4-(2-hydroxyethyl)piperazin-1-yl)butanoate]
6.52	CCCCCCCCCCCCCCCCCOc1cc(COC(=O)CCCN2CCN(C)CC2)cc(OCCCCCCCCCCC)c1 [IAJD 126, 3-(Heptadecyloxy)-5-(undecyloxy)benzyl 4-(4-methylpiperazin-1-yl)butanoate]
6.52	CCCCCCCCCCCCCCCCCOc1cc(COC(=O)CCCN2CCN(CCO)CC2)cc(OCCCCCCCCCCC)c1 [IAJD 127, 3-(Heptadecyloxy)-5-(undecyloxy)benzyl 4-(4-(2-hydroxyethyl)piperazin-1-yl)butanoate]
6.68	CCCCCCCCCCCCCCCCCCOc1cc(COC(=O)CCCN2CCN(CCO)CC2)cc(OCCCCCCCCCCC)c1 [IAJD 128, 3-(Octadecyloxy)-5-(undecyloxy)benzyl 4-(4-(2-hydroxyethyl)piperazin-1-yl)butanoate]
6.62	CCCCCCCCCCCOc1cc(COC(=O)CCCN2CCN(CCO)CC2)cc(OCC(CC)CCCC)c1 (stereo not drawn) [IAJD 130, 3-((2-Ethylhexyl)oxy)-5-(undecyloxy)benzyl 4-(4-(2-hydroxyethyl)piperazin-1-yl)butanoate]
6.57	CCCCCCCCCCCCCCOc1cc(CNC(=O)CCCN2CCN(C)CC2)cc(OCCCCCCCCCCC)c1 [IAJD 133, 4-(4-Methylpiperazin-1-yl)-N-(3-(tetradecyloxy)-5-(undecyloxy)benzyl)butanamide]
6.32	CCCCCCCCCCCCCCCOc1cc(COC(=O)CCCN2CCN(C)CC2)cc(OCC(CC)CCCC)c1 (stereo not drawn) [IAJD 135, 3-((2-Ethylhexyl)oxy)-5-(pentadecyloxy)benzyl 4-(4-methylpiperazin-1-yl)butanoate]
6.5	CCCCCCCCCCCCCCCOc1cc(COC(=O)CCCN2CCN(CCO)CC2)cc(OCC(CC)CCCC)c1 (stereo not drawn) [IAJD 136, 3-((2-Ethylhexyl)oxy)-5-(pentadecyloxy)benzyl 4-(4-(2-hydroxyethyl)piperazin-1-yl)butanoate]
6.62	CCCCCCCCCCCCCCCOc1cc(COC(=O)CCCN2CCN(CCO)CC2)cc(OCCCCCCCC)c1 [IAJD 138, 3-(Octyloxy)-5-(pentadecyloxy)benzyl 4-(4-(2-hydroxyethyl)piperazin-1-yl)butanoate]
6.56	CCCCCCCCCCCCCCCOc1cc(COC(=O)CCCN2CCN(C)CC2)cc(OCCCCCCCCCC)c1 [IAJD 141, 3-(Decyloxy)-5-(pentadecyloxy)benzyl 4-(4-methylpiperazin-1-yl)butanoate]
6.69	CCCCCCCCCCCCCCCOc1cc(COC(=O)CCCN2CCN(CCO)CC2)cc(OCCCCCCCCCC)c1 [IAJD 142, 3-(Decyloxy)-5-(pentadecyloxy)benzyl 4-(4-(2-hydroxyethyl)piperazin-1-yl)butanoate]
6.33	CCCCCCCCCCCCCCCOc1cc(COC(=O)CCCN2CCN(C)CC2)cc(OCCCCCCCCCCCC)c1 [IAJD 143, 3-(Dodecyloxy)-5-(pentadecyloxy)benzyl 4-(4-methylpiperazin-1-yl)butanoate]
6.51	CCCCCCCCCCCCCCCOc1cc(COC(=O)CCCN2CCN(CCO)CC2)cc(OCCCCCCCCCCCC)c1 [IAJD 144, 3-(Dodecyloxy)-5-(pentadecyloxy)benzyl 4-(4-(2-hydroxyethyl)piperazin-1-yl)butanoate]
6.28	CCCCCCCCCCCCCCCOc1cc(COC(=O)CCCN2CCN(C)CC2)cc(OCCCCCCCCCCCCC)c1 [IAJD 145, 3-(pentadecyloxy)-5-(tridecyloxy)benzyl 4-(4-methylpiperazin-1-yl)butanoate]
6.59	CCCCCCCCCCCCCCCOc1cc(COC(=O)CCCN2CCN(CCO)CC2)cc(OCCCCCCCCCCCCC)c1 [IAJD 146, 3-(Pentadecyloxy)-5-(tridecyloxy)benzyl 4-(4-(2-hydroxyethyl)piperazin-1-yl)butanoate]
6.32	CCCCCCCCCCCCCCCOc1cc(COC(=O)CCCN2CCN(C)CC2)cc(OCCCCCCCCCCCCCC)c1 [IAJD 147, 3-(Pentadecyloxy)-5-(tetradecyloxy)benzyl 4-(4-methylpiperazin-1-yl)butanoate]
